Read-outs that look alike come from different tables or passages of the source. Non-standard residues stand in square brackets, D forms with d. Residues, ends and D or L forms follow the SMILES beside them. Tle = CC(C)(C)[C@H](N)C(=O)O; Dab = NCC[C@H](N)C(=O)O; Aib = CC(C)(N)C(=O)O
Columns and labels:
[1] = plasma stability test, rat plasma; assay type: in vitro ADME
Method: Solution preparation: An appropriate amount of a test polypeptide compound was weighed out and dissolved in an appropriate amount of 1× PBS to form a 1 mM test solution. NA-1 and NoNO42 were used as positive drugs, propantheline bromide was used as a human plasma test control, and lovastatin was used as a rat plasma test control. Plasma stability test: 12.5 µL of the 1 mM test solution was added to a 495 µL pre-incubated plasma sample. […] For each incubation time, two parallel samples were set. Subsequently, 200 µL of stop solution was added to stop the incubation, and the mixtures were vortexed for 5 min. Then the mixtures were centrifuged at 10,000 rpm at 4 °C for 10 min to remove the protein in the sample, and 70 µL of the supernatant was transferred to a new 96-well plate (70 µL of water was added to each well beforehand) and well mixed. […] Sample pretreatment: […] LC-MS analysis: […] (2) Mass-spectrometric conditions: The mass spectrometry analysis used an electrospray ionization (ESI) source, a positive ion analysis mode, and a multi-reaction monitoring (MRM) scan mode. […] The plasma stability of the polypeptide compound

[2] = pharmacokinetic study of different doses in rats; assay type: in vivo, SD rats; details: SD, rat, plasma, intravenous bolus injection; for AUC(0-t): blood to 180 min, n = 3, read-out: AUC(0-t); for AUC(0-inf) / MRT / half-life: n = 3; for Cmax: n = 3, read-out: Cmax
Method: For example, at high doses, the agent causes symptoms such as tachycardia and blood pressure reduction due to excessive histamine release. Therefore, the pharmacokinetic profile of polypeptide compound 14 was assessed again using three doses: a high dose (3 nmol/g), a medium dose (1 nmol/g), and a low dose (0.3 nmol/g). […] Plasma concentration-time curves were plotted, and the pharmacokinetic parameters were calculated using WinNonlin software. Table 6. Intravenous bolus injection pharmacokinetic parameters in rats (different doses, n = 3)

[3] = test system: rat red blood cell suspensions; experiment: hemolysis risk test in rat whole blood; assay type: cell-based; details: for Hemolysis rate (%): Rat, 37 °C 1 h
From the text: Hemolysis refers to the phenomenon in which the membrane of erythrocytes is destroyed, along with increased transparency and a dark red appearance. Certain pharmaceutical ingredients, excipients, etc. may contain hemolytic components, which may cause hemolysis in the human body and cause adverse reactions such as local swelling and blood circulation dysfunction. On the basis of the principle that the hemoglobin released from lysed red blood cells has absorption in the visible light wave band, test compound solutions were added to rat red blood cell suspensions, and after incubation, the degrees of hemolysis were determined using a microplate reader.
This test example assessed whether a polypeptide compound causes hemolytic reactions in rat, rabbit, and human whole blood.
Preparation of red blood cell suspension: 100 µL of fresh whole blood was collected, and 900 µL of 1× PBS solution was then added. The mixture was shaken on a plate shaker at 30 rpm for 5 min and then centrifuged at 1000 g for 5 min, and the supernatant was discarded. The above washing step was repeated until the supernatant no longer appeared red. The suspension was set aside for later use.
Preparation of test polypeptide solutions: An appropriate amount of 1× PBS solution was added to a powdered polypeptide, and the polypeptide was dissolved to form a standard stock solution. […] Meanwhile, blank 1× PBS was used as a negative control, and a 1× PBS solution containing 0.1% Triton X-100 was used as a positive control.
Incubation: A test solution (500 µL) was added to the red blood cell suspension, and then the mixture was well shaken on a plate shaker at 30 rpm for 5 min, incubated at 37 °C for 1 h, and centrifuged at 1000 g for 5 min.
100 µL of the supernatant was transferred to a single well of a microplate. The absorbance at 540 nm was measured using a SpectraMax M5 microplate reader, and data analysis was performed using GraphPad Prism 9. The hemolysis rate (%) was calculated using the formula: (test sample absorbance - negative control absorbance) / (positive control absorbance - negative control absorbance) × 100%. A rate of less than 5% indicates the absence of hemolysis, while a rate of greater than 5% indicates the presence of hemolysis. Table 3. Testing of the hemolysis risk of the polypeptide compound

Work on `CC[C@H](C)[C@H](NC(=O)[C@H](CO)NC(=O)[C@H](CO)NC(=O)[C@H](CC(C)C)NC(=O)[C@@H](CCCCN)NC(=O)[C@H](CCCNC(=N)N)NC(=O)[C@H](CCCNC(=N)N)NC(=O)[C@@H](CCCNC(=N)N)NC(=O)[C@H](CCC(N)=O)NC(=O)[C@@H](CCCNC(=N)N)NC(=O)[C@H](CCCNC(=N)N)NC(=O)[C@H](CCCCN)NC(=O)[C@H](CCCCN)NC(=O)[C@@H](CCCNC(=N)N)NC(=O)CNC(=O)[C@@H](N)Cc1ccc(O)cc1)C(=O)N[C@@H](CCC(=O)O)C(=O)N[C@@H](CO)C(=O)N[C@@H](CC(=O)O)C(=O)N[C@H](C(=O)O)C(C)C` [NoNO42, YGrKKRrQrRRkLSSIESDV, reference compound] (H-YG[dR]KKR[dR]Q[dR]RR[dK]LSSIESDV-OH) yielded a remaining at 10 min, 25 µM ([1]; rat, plasma) of 98.4%, a remaining at 20 min, 25 µM ([1]; rat, plasma) of 93.6% and a remaining at 0.5 h, 25 µM ([1]; rat, plasma) of 93.6%. It also gave a remaining at 1 h, 25 µM ([1]; rat, plasma) of 90.8% and a remaining at 2 h, 25 µM ([1]; rat, plasma) of 95%.

`CC(C)[C@H](NC(=O)[C@H](CC(=O)O)NC(=O)[C@@H](NC(=O)[C@@H](NC(=O)[C@@H](NC(=O)[C@@H](NC(=O)[C@H](CCN)NC(=O)C(C)(C)NC(=O)CNC(=O)[C@@H](CCCNC(=N)N)NC(=O)[C@@H](CCCNC(=N)N)NC(=O)[C@@H](CCCNC(=N)N)NC(=O)[C@@H](CCC(N)=O)NC(=O)[C@@H](CCCNC(=N)N)NC(=O)[C@@H](CCCNC(=N)N)NC(=O)[C@@H](CCCCN)NC(=O)[C@@H](CCCCN)NC(=O)[C@@H](CCCNC(=N)N)NC(=O)CNC(=O)[C@H](N)Cc1ccc(O)cc1)[C@@H](C)O)C(C)(C)C)C(C)(C)C)[C@@H](C)O)C(=O)O` [Polypeptide compound 14, y-G-r-k-k-r-r-q-r-r-r-G-Aib-Dab-T-Tle-Tle-T-D-V] (H-[dY]G[dR][dK][dK][dR][dR][dQ][dR][dR][dR]G[Aib][Dab]T[Tle][Tle]TDV-OH) gave an AUC(0-t) ([2]; 0.3 nmol/g) of 1230 ng·h/mL, an AUC(0-inf) ([2]; 0.3 nmol/g) of 1280 ng·h/mL and an MRT ([2]; 0.3 nmol/g) of 0.856 h. It also gave a half-life ([2]; 0.3 nmol/g) of 0.723 h, a Cmax ([2]; 0.3 nmol/g) of 1870 ng/mL and an AUC(0-t) ([2]; 1 nmol/g) of 5860 ng·h/mL. The AUC(0-inf) ([2]; 1 nmol/g) was 6600 ng·h/mL, the MRT ([2]; 1 nmol/g) was 1.31 h and the half-life ([2]; 1 nmol/g) was 0.967 h. It also gave a Cmax ([2]; 1 nmol/g) of 5970 ng/mL, an AUC(0-t) ([2]; 3 nmol/g) of 15000 ng·h/mL and an AUC(0-inf) ([2]; 3 nmol/g) of 17700 ng·h/mL. For the same molecule, the MRT ([2]; 3 nmol/g) was 1.47 h, the half-life ([2]; 3 nmol/g) was 1.15 h and the Cmax ([2]; 3 nmol/g) was 18300 ng/mL. For the same molecule, the “Hemolysis rate (%)” value ([3]; 1.0 µM) was 0.11%, the “Hemolysis rate (%)” value ([3]; 2.5 µM) was 0.17% and the “Hemolysis rate (%)” value ([3]; 5.0 µM) was -0.11%. For the same molecule, the “Hemolysis rate (%)” value ([3]; 10 µM) was 0.00%, the “Hemolysis rate (%)” value ([3]; 25 µM) was -0.16% and the “Hemolysis rate (%)” value ([3]; 50 µM) was 0.12%. For the same molecule, the hemolysis rates ([3]; rat whole blood, concentration range of 1 to 50 µM) was “less than 5%”, the “Relative remaining compound content (%)” value ([1]; Rat plasma, 25 µM, 0min (standard 100%)) was 100.0% and the remaining at 10 min, 25 µM ([1]; Rat plasma, 25 µM, 10min, read-out: Relative remaining compound content (%)) was 105%. It also gave a remaining at 20 min, 25 µM ([1]; Rat plasma, 25 µM, 20min, read-out: Relative remaining compound content (%)) of 117%, a remaining at 0.5 h, 25 µM ([1]; Rat plasma, 25 µM, 30min, read-out: Relative remaining compound content (%)) of 107% and a remaining at 1 h, 25 µM ([1]; Rat plasma, 25 µM, 60min, read-out: Relative remaining compound content (%)) of 109%. It also gave a remaining at 2 h, 25 µM ([1]; Rat plasma, 25 µM, 120min, read-out: Relative remaining compound content (%)) of 104%.
